From PMC12560828, “Chemical structure drives developmental toxicity of alkyl-substituted naphthalenes in zebrafish” (Environment international, 2025)

Experiments:
[1] = system: early life stage zebrafish (Danio rerio) embryos; test: Developmental toxicity morphology screen, sealed rotating vial exposure; assay type: in vivo; parameters: bmd, MO24 / bmd, MORT / bmd, ANY_ / bmd, AXIS / bmd, CRAN / bmd, EDEM / bmd, LTRK / bmd, MUSC / bmdL, ANY_ / bmdU, ANY_ / bmdL, AXIS / bmdU, AXIS / bmdL, CRAN / bmdU, CRAN / bmdL, EDEM / bmdU, EDEM / bmdL, LTRK / bmdU, LTRK / bmdL, MO24 / bmdU, MO24 / bmdL, MORT / bmdU, MORT: unit not given here
Description: (§1) When embryos were 6 hpf they were bleached in groups of 1000 or less to limit bacterial growth in sealed vials. Embryos were placed in a strainer for transfer between solutions in 500 mL containers. […] Pools of eight embryos were placed into 2 mL clear glass screw cap exposure vials with polyvinyl-faced pulp liner (Avantar Radnor, PA, United States) using a glass Pasteur pipette. Excess EM was removed, and 2 mL of fresh EM was immediately added. A total of 10 uL of 200x working stock (in DMSO) was added to each vial, then immediately capped and inverted three times to mix. […] Vials were loaded into a custom 3D printed vial holder for slow end-over-end rotation in a dark 28 °C incubator overnight. […] At 24 hpf, embryos were removed from exposure vials and singulated into 96-well plates loaded with 100 μL chemical-free EM. Each exposure vial group was maintained in plate columns. After loading into 96-well plates, embryos were assessed for 24-hour mortality. For the remainder of the exposure, plates were kept stationary at 28 °C in the dark, until 120 hpf when morphology screening and the larval photo motor response (LPR) assay were conducted, section 2.3.2 and section 2.3.3, respectively.
Each treatment group was replicated over four vials, resulting in 32 embryos per treatment, split over two replicate 96-well plates per chemical. […] All reported concentrations were nominal water concentrations and are included in SI-T4.
At 24 hpf embryos were assessed for mortality (MO24). At 120 hpf embryos were assessed for abnormality in […] morphological endpoints: mortality (MORT), edemas (EDEM), bent axis (AXIS), touch response (TCHR), craniofacial (CRAN), muscular/cardiovascular (MUSC), lower trunk (LRTK), brain (BRAN), skin (SKIN), and notochord malformations (NC). Morphological assessments were made by a team of three to four individuals. The team was blinded to the identity, plate layout, and concentrations of the chemicals, thereby minimizing bias in morphological screening assessment. To ensure the assessments were consistent, concentration–response reproducibility of a parathion ethyl quality control plate was performed along with each experimental exposure set up. Details of all measured endpoints can be found at Developmental toxicity zebrafish phenotype atlas. […] Each endpoint was scored as a binary presence/absence and scores were compiled into an “Any effect” endpoint, the presence of abnormality in any individual endpoint.
The Any effect percent was used to calculate the BMC50, 50 % change relative to the background for each endpoint and chemical. All values were reported as the nominal exposure concentration.

[2] = system: zebrafish larvae, 120 hpf; test: Larval photomotor response (LPR) assay after vial exposure; assay type: in vivo, Danio rerio; details: for fold_change: LPR
Description: as §1
Each treatment group was replicated over four vials, resulting in 32 embryos per treatment, split over two replicate 96-well plates per chemical. […] Vial groups of plated larvae were tracked to assess the impact of the vial on the results. All reported concentrations were nominal water concentrations and are included in SI-T4.
The LPR assay was conducted at 120 hpf. […] Larval movement was tracked throughout minutes 6–24. Animals dead or morphologically abnormal were excluded from the analysis, and if more than 30 % of the wells in a treatment group were excluded, the treatment was removed.
Movement values were binned into 6s intervals, log normalized and used to calculate area under the curve (AUC). AUC values from the first cycle after calibration were used to calculate the LEL for each period (light and dark).

[3] = system: zebrafish embryos, gene expression at 48 hpf; test: Targeted transcriptomics (TempO-Seq S1500+ zebrafish panel), differential expression; assay type: in vivo, Danio rerio; details: 20 μM, result in words
Description: Targeted transcriptomics were performed using the Biospyder™ TempO-Seq™ 96-well plate platform. This platform used detector oligos for a gene set of 3112 probes selected through data driven approaches and expert curation ([Balik-Meisner et al., 2019]). The targeted transcriptomics approach was selected to maximize the number of chemicals that could be included in the analysis while managing cost and data analysis requirements. Targeted transcriptomics were limited to 96 samples, three chemicals without morphological effects were excluded from the analysis to ensure n = 4 per chemical and n = 6 controls, excluded chemicals are indicated in SI-T3.
A single exposure concentration of 20 μM was chosen as the maximum possible concentration to elicit a biological response that also ensured enough viable animals for RNA collection for every chemical. The same concentration per chemical was chosen as opposed to a phenotypically anchored concentration due to variability in 48 hpf survival across chemicals at the same 120 hpf percent effect and to allow for a direct comparison of chemical potency and transcriptomic response. 48 hpf was chosen to ensure the measurement of transcriptomic responses prior to the emergence of observable phenotypic effects. This timepoint has been used extensively and enhanced the ability to compare our results across datasets. Exposure was conducted over two days, chemicals were split into day groups by numerical order of randomly generated internal labels, 11 chemicals and control each day, n = 48 embryos across six vials per treatment. Exposure was conducted as previously described in section 2.3. At 48 hpf embryos were collected for RNA extraction. Embryos from two exposure vials were kept for morphological effect assessments which were as expected based on screening results. From the remaining wells, six phenotypically normal embryos were collected and pooled in their vial groups into 1.5 mL Eppendorf tubes, placed on ice (~30 sec), excess medium was removed, placed back on ice (~30 sec), and 200 μL RNA shield was added. […] of n = 6 pooled embryos were collected from each treatment.
RNA was extracted from exposure groups on day one and day two. 100 μL of lysis buffer was added to each tube containing pooled embryo samples and 200 μL of RNA shield, the full contents of the tube were then transferred to the homogenization plate (2 mL deep 96-well plate pre-filled with 400 μL 1 mm zirconium beads and 500 μL of lysis buffer). The plate was homogenized for 1.5 min using the Mini-BeadBeater 96 (BioSpec Products, Bartlesville, OK, United States) and centrifuged for five min at 3000 rcf. 550 μL of the supernatant was distributed over two plates, each pre-filled with 275 μL of ethanol. RNA extraction was performed using the KingFisher Apex System (ThermoFisher Scientific, Waltham, MA, United States) and Quick-RNA Magbead kit (Zymo Research Corporation, Irvine, CA, Untied States). Briefly, this automated process uses Mag beads to collect RNA from the sample, after a series of washes and treatment with DNase the RNA is eluted in 50 μL of ultra-pure water. RNA quality was assessed using the 4150 TapeStation System (Agilent, Santa Clara, CA, United States). All samples used had RNA integrity number (RIN) scores >9.8. RNA concentration was determined using Quant-iT RNA Reagent and assay kit and Varioskan ALF multi-mode plate reader (ThermoFisher Scientific, Waltham, MA, United States) in duplicate, samples with high variability (coefficient of variance (CV) > 10) between reads were repeated in triplicate. The average of the quantification reads was used for RNA concentration normalization. […] All 94 samples were normalized using ultra-pure water to the lowest concentration sample − 14.9 ng/μL. […]

## Cc1ccc(C)c2c(C)cccc12 [1,4,5-trimethylnaphthalene]
[1]; Fig. 2, nominal concentration
  BMC50 MO24 (mortality at 24 hpf): 27.7 µM
  BMC50 MORT (mortality at 120 hpf): 23.5 µM
[1]; Fig. 2 heatmap, nominal concentration, exposure 6-24 hpf in vials, summary of all endpoints
  BMC50 Any effect: 19.7 µM
[1]; SI-T5
  any effect BMD50: 19.74 µM
[1]; benchmark dose, endpoint MO24
  bmd, MO24: 27.7283
[1]; benchmark dose, endpoint MORT
  bmd, MORT: 23.5002
[1]; benchmark dose, morphology endpoint ANY_ (any effect)
  bmd, ANY_: 19.7402
[2]; 120 hpf, light/dark periods, result in words
  LPR behavioral effect: hyperactivity during the light period
[2]; period dark, round 1, conc 3.125
  fold_change: 0.1634
[2]; period dark, round 1, conc 6.25
  fold_change: 0.08749
[2]; period dark, round 1, conc 12.5
  fold_change: -0.2344
[2]; period dark, round 2, conc 12.8
  fold_change: 0.03668
[2]; period dark, round 2, conc 16
  fold_change: -0.1932
[2]; period dark, round 2, conc 20
  fold_change: 0.4872
[2]; period light, round 1, conc 3.125
  fold_change: -0.0344
[2]; period light, round 1, conc 6.25
  fold_change: 0.04487
[2]; period light, round 1, conc 12.5
  fold_change: 0.5316
[2]; period light, round 2, conc 12.8
  fold_change: 0.4664
[2]; period light, round 2, conc 16
  fold_change: -0.1141
[2]; period light, round 2, conc 20
  fold_change: 1.443
[3]
  nt5dc2 expression: decreased expression
